From US11358950B2, “SMAC mimetics used as IAP inhibitors and use thereof” (CHIA TAI TIANQING PHARMACEUTICAL GROUP CO., LTD., priority 2017, dated 2022)

What was measured:
XIAP BIR3 = target: T1, XIAP BIR3 (Homo sapiens, UniProt P98170); assay: Binding experiment of XIAP BIR3 (fluorescence polarization); conditions: 30 nM XIAP BIR3, 5 nM probe ARPFAQ-K(5-FAM)-NH2, 60 min
T1 construct: covering amino acids 255 to 356; GST; His; purchased RBC APT-11-374; host or cells: E. coli
Experimental: (§1) Buffer system for the test (a buffer for cIAP1 BIR3 or XIAP BIR3): 100 mM potassium phosphate, pH 7.5; 0.1% BSA; 0.005% Triton X-100; and 1% dimethyl sulfoxide.
(§2) Probe: ARPFAQ-K(5-FAM)-NH2.
XIAP-BIR3-his: RBC Cat #APT-11-374, the BIR3 domain of XIAP (covering amino acids 255 to 356; XIAP BIR3), as a GST-fusion protein expressed and purified from E. coli.
(§3) Reaction conditions: 5 nM ARPFAQ-K(5-FAM)-NH2, 20 nM cIAP1 BIR3 and 30 nM XIAP BIR3.
(§4) First, a fresh buffer for cIAP1 BIR3 or XIAP BIR3 was prepared, a cIAP1 BIR3 or XIAP BIR3 solution (2-fold diluted) was added thereto, and then a compound to be tested which had been dissolved in 100% DMSO was added into the buffer solution containing cIAP1 BIR3 or XIAP BIR3 by an acoustic technique. Thereafter, the probe (2-fold diluted) was added, and the resultant was mixed and incubated in the dark at room temperature for 60 minutes. The fluorescence polarization was measured and the mP value was calculated. Finally, the IC50 value was obtained.

MDA-MB-231 cells = assay: In-vitro cell viability test (CellTiter-Glo, 7 days); assay type: cell-based; conditions: Homo sapiens, 168 h, 7 days incubation
Experimental: RPMI 1640 medium (Invitrogen-22400089); fetal bovine serum (Invitrogen-10099141); Trypsin, 0.05% (1×) with EDTA 4Na (Invitrogen-25300062); luminescent cell viability assay kit (Promega-G7573); Dulbecco's phosphate buffered saline (HyClone-SH30028.01B); and 384-well plate (Corning-6007680). Envision Multi-label Analyzer.
1. 30 μL of MDA-MB-231 cell suspension, which contained 250 MDA-MB-231 cells, was added into the wells of a 384-microwell plate.
2. 20 μL of a test compound (the test compounds were formulated at a high concentration of 10 μM, the test compounds were subjected to a 5-fold gradient dilution, and each compound was diluted to 10 concentration gradients) was added, and then the cell plate was put back into a carbon dioxide incubator to be incubated for 7 days.
3. The cell plate was kept flat at room temperature for 30 minutes.
4. 20 μL of a Promega CellTiter-Glo reagent was added into each well of the cell plate.
5. After 10 minutes, the Envision Multi-label Analyzer was used for data reading.

cIAP1 BIR3 = target: T2, cIAP1 BIR3 (Homo sapiens, UniProt Q13490); assay: Binding experiment of cIAP1 BIR3 (fluorescence polarization); conditions: 20 nM cIAP1 BIR3, 5 nM probe ARPFAQ-K(5-FAM)-NH2, 60 min
T2 construct: covering amino acids 258 to 363; GST; His; purchased RBC APT-11-370; host or cells: E. coli
Experimental: as §1, §2
cIAP1-BIR3-his: RBC Cat #APT-11-370, the BIR3 domain of human cIAP1 (covering amino acids 258 to 363; cIAP1 BIR3), as a GST-fusion protein expressed and purified from E. coli.
as §3, §4

T1 sequence (P98170 255-356): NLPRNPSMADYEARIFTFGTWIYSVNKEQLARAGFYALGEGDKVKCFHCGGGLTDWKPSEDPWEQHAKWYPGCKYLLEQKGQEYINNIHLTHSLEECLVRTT
T2 sequence (Q13490 258-363): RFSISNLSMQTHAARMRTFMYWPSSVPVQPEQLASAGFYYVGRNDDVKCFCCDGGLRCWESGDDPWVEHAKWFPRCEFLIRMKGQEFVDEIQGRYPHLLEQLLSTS

| SMILES | IC50 (XIAP BIR3) [nM] | IC50 (MDA-MB-231 cells) [nM] | IC50 (cIAP1 BIR3) [nM] |
| --- | --- | --- | --- |
| CN[C@@H](C)C(=O)N[C@H](C(=O)N1CCC[C@H]1Cn1cc(C(C)=O)c2cc(F)ccc21)C1CCCCC1 [Example 1] | 74.7 | 70 | 3.7 |
| CN[C@@H](C)C(=O)N[C@H](C(=O)N1C[C@@H](Oc2ccccc2)C[C@H]1Cn1cc(C(C)=O)c2cc(F)ccc21)C1CCCCC1 [Example 31] | 49.1 | 1460 | 3.7 |
| CN[C@@H](C)C(=O)N[C@H](C(=O)N1CCC[C@H]1Cn1cc(C(C)=O)c2cccc(Cl)c21)C1CCCCC1 [Example 6] | 9.3 | 497 | 58.3 |
| CN[C@@H](C)C(=O)N[C@H](C(=O)N1CCC[C@H]1Cn1cc(N2CCOC2=O)c2cc(Cl)ccc21)C1CCCCC1 [Example 30] | 21.6 | 47.6 | 4.4 |
| CN[C@@H](C)C(=O)N[C@H](C(=O)N1CCC[C@H]1Cn1c(C)c(C(C)=O)c2cc(Cl)ccc21)C1CCCCC1 [Example 13] | 30.6 | 44.3 | 5 |
| CN[C@@H](C)C(=O)N[C@H](C(=O)N1CCC[C@H]1Cn1nc(C(C)=O)c2cc(Cl)ccc21)C1CCCCC1 [Example 14] | 49.9 | 57.7 | 6.2 |
| CN[C@@H](C)C(=O)N[C@H](C(=O)N1CCC[C@H]1Cn1cc(S(C)(=O)=O)c2cc(Cl)ccc21)C1CCCCC1 [Example 21] | 37.4 | 16.4 | 4.2 |
| CN[C@@H](C)C(=O)N[C@H](C(=O)N1CCC[C@H]1Cn1cc(C(N)=O)c2cc(F)ccc21)C1CCCCC1 [Example 22] | 42 | 85 | 3 |
| CN[C@@H](C)C(=O)N[C@H](C(=O)N1CCC[C@H]1Cn1cc(C#N)c2cc(Cl)ccc21)C1CCCCC1 [Example 18] | 42.5 | 22.5 | 5.1 |
| CN[C@@H](C)C(=O)N[C@H](C(=O)N1CCC[C@H]1Cn1cc(C(C)=O)c2cc(Cl)c(F)cc21)C1CCCCC1 [Example 9] | 20 | 26 | 5.7 |
| CN[C@@H](C)C(=O)N[C@H](C(=O)N1CCC[C@H]1Cn1cc(C#N)c2cc(F)ccc21)C1CCCCC1 [Example 17] | 80.7 | 79 | 1.9 |
| CN[C@@H](C)C(=O)N[C@H](C(=O)N1CCC[C@H]1Cn1cc(C(C)=O)c2cc(C(F)(F)F)ccc21)C1CCCCC1 [Example 3] | 18.1 | 16 | 1 |
| CN[C@@H](C)C(=O)N[C@H](C(=O)N1CCC[C@H]1Cn1cc(C(C)=O)c2c(Cl)cccc21)C1CCCCC1 [Example 4] | 97 | 220 | 2.6 |
| CN[C@@H](C)C(=O)N[C@H](C(=O)N1CCC[C@H]1Cn1cc(C(C)=O)c2cc(Br)ccc21)C1CCCCC1 [Example 7] | 45 | 16.6 | 4.9 |
| CN[C@@H](C)C(=O)N[C@H](C(=O)N1CCC[C@H]1Cn1nc(C(C)=O)c2cc(F)ccc21)C1CCCCC1 [Example 15] | 258 | 93 | 4 |
| CN[C@@H](C)C(=O)N[C@H](C(=O)N1CCC[C@H]1Cn1cc(C(C)=O)c2cc(Cl)cnc21)C1CCCCC1 [Example 16] | 346 | 109 | 8.4 |
| CN[C@@H](C)C(=O)N[C@H](C(=O)N1CCC[C@H]1Cn1cc(-c2ccnn2C)c2cc(F)ccc21)C1CCCCC1 [Example 26] | 60 | 181 | 1.1 |
| CN[C@@H](C)C(=O)N[C@H](C(=O)N1CCC[C@H]1Cn1cc(C(C)=O)c2c(F)c(Cl)ccc21)C1CCCCC1 [Example 10] | 27.2 | 32.4 | 4.5 |
| CN[C@@H](C)C(=O)N[C@H](C(=O)N1CCC[C@H]1Cn1cc(C(C)=O)c2cc(OC(F)(F)F)ccc21)C1CCCCC1 [Example 11] | 139 | 74.8 | 5.2 |
| CN[C@@H](C)C(=O)N[C@H](C(=O)N1CCC[C@H]1Cn1cc(C(=O)C(C)C)c2cc(Cl)ccc21)C1CCCCC1 [Example 24] | 19.2 | 73 | 4.1 |
| CN[C@@H](C)C(=O)N[C@H](C(=O)N1CCC[C@H]1Cn1cc(S(C)(=O)=O)c2cc(F)ccc21)C1CCCCC1 [Example 20] | 53.9 | 75 | 1.1 |
| CN[C@@H](C)C(=O)N[C@H](C(=O)N1CCC[C@H]1Cn1cc(N2CCN(C)C2=O)c2cc(Cl)ccc21)C1CCCCC1 [Example 29] | 31.4 | 134 | 6.1 |
| CN[C@@H](C)C(=O)N[C@H](C(=O)N1CCC[C@H]1Cn1cc(C(=O)N(C)C)c2cc(Cl)ccc21)C1CCCCC1 [Example 23] | 21.3 | 45.2 | 4.6 |
| CN[C@@H](C)C(=O)N[C@H](C(=O)N1CCC[C@H]1Cn1nc(C#N)c2cc(Cl)ccc21)C1CCCCC1 [Example 19] | 129 | 43.1 | 4.6 |
| CN[C@@H](C)C(=O)N[C@H](C(=O)N1CCC[C@H]1Cn1cc(C(C)=O)c2ccc(Cl)cc21)C1CCCCC1 [Example 5] | 95.9 | 75 | 2.6 |
| CN[C@@H](C)C(=O)N[C@H](C(=O)N1CCC[C@H]1Cn1cc(C(C)=O)c2cc(Cl)c(Cl)cc21)C1CCCCC1 [Example 8] | 40.3 | 75 | 5.6 |
| CN[C@@H](C)C(=O)N[C@H](C(=O)N1CCC[C@H]1Cn1cc(-c2ccnn2C)c2cc(Cl)ccc21)C1CCCCC1 [Example 27] | 46.4 | 282 | 4.4 |
| CN[C@@H](C)C(=O)N[C@H](C(=O)N1CCC[C@H]1Cn1cc(N2CCCC2=O)c2cc(Cl)ccc21)C1CCCCC1 [Example 28] | 27.3 | 36.7 | 5.2 |
| CN[C@@H](C)C(=O)N[C@H](C(=O)N1CCC[C@H]1Cn1cc(-c2ccccc2C)c2cc(F)ccc21)C1CCCCC1 [Example 25] | 208 | 1150 | 6.8 |
